Laboratory results: patent US7732429B2 (Trustees of Tufts College, priority 1994, dated 2010)
Converted amounts (≈) assume the structure as drawn.

Tests used:
Type in all cases: cell-based
[1] = test system: E. coli ML308; assay: susceptibility of tetracycline susceptible strains (MIC), C5 esters; settings: E. coli ML308, susceptible strain, drug alone
[2] = test system: E. coli DI-299 (Tet A); assay: MIC/MLC chart, analog with and without doxycycline; set-up: key to growth/killing, Analog + Doxy / growth/killing, Doxy Control / growth/killing, Analog Control / growth in MIC/MLC chart: +=growth; 0=no growth (MIC); ↓=killing; ? =99.9% killing (MLC); □=no growth, but no microbiologic testing;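 note: bacterial growth inhibition and killing in broth, each agent tested alone or combined with doxycycline across two-fold serial dilutions, overnight incubation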
[3] = test system: E. faecalis ATCC 9790; assay: susceptibility of tetracycline susceptible strains (MIC), C5 esters; settings: E. faecalis ATCC 9790, susceptible strain, drug alone
[4] = test system: E. faecalis 211 (Tet M); assay: MIC/MLC chart, analog with and without doxycycline
[5] = test system: E. faecalis 158 (Tet L); assay: MIC/MLC chart, analog with and without doxycycline
[6] = test system: S. aureus 450; assay: susceptibility of tetracycline susceptible strains (MIC), C5 esters; settings: S. aureus 450, susceptible strain, drug alone
[7] = test system: S. aureus 4250 (Tet K); assay: MIC/MLC chart, analog with and without doxycycline
[8] = Analog Control: analog alone .195 μg/ml
[9] = analog .195 μg/ml + doxycycline 1.56 μg/ml
[10] = analog .195 μg/ml + doxycycline 3.12 μg/ml
[11] = analog .195 μg/ml + doxycycline 6.25 μg/ml

Structure (SMILES): C=C1c2cccc(O)c2C(=O)C2=C(O)C3(O)C(=O)C(C(N)=O)=C(O)C(N(C)C)C3C(OC(=O)CC)C12 (centres unmarked) [Cmpd 2]
- MIC [1]: 10 µg/mL (≈ 20.1 µM)
- growth/killing, Analog + Doxy ([2]; analog 1.56 + Doxy 1.55 μg/ml): +
- growth/killing, Analog + Doxy ([2]; analog 1.56 + Doxy 3.1 μg/ml): +
- growth/killing, Analog + Doxy ([2]; analog 1.56 + Doxy 6.2 μg/ml): +
- growth/killing, Analog + Doxy ([2]; analog 1.56 + Doxy 12.3 μg/ml): +
- growth/killing, Analog + Doxy ([2]; analog 3.12 + Doxy 1.53 μg/ml): +
- growth/killing, Analog + Doxy ([2]; analog 3.12 + Doxy 3.05 μg/ml): +
- growth/killing, Analog + Doxy ([2]; analog 3.12 + Doxy 6.1 μg/ml): +
- growth/killing, Analog + Doxy ([2]; analog 6.25 + Doxy 3.0 μg/ml): +
- growth/killing, Analog + Doxy ([2]; analog 6.25 + Doxy 5.9 μg/ml): +
- growth/killing, Analog + Doxy ([2]; analog 12.5 + Doxy 2.8 μg/ml): +
- growth/killing, Analog + Doxy ([2]; analog 12.5 + Doxy 5.5 μg/ml): +
- growth/killing, Analog + Doxy ([2]; analog .195 + Doxy 1.56 μg/ml): +
- growth/killing, Analog + Doxy ([2]; analog .195 + Doxy 3.12 μg/ml): +
- growth/killing, Analog + Doxy ([2]; analog .195 + Doxy 6.25 μg/ml): +
- growth/killing, Analog + Doxy ([2]; analog .195 + Doxy 12.5 μg/ml): +
- growth/killing, Analog + Doxy ([2]; analog .39 + Doxy 1.56 μg/ml): +
- growth/killing, Analog + Doxy ([2]; analog .39 + Doxy 3.12 μg/ml): +
- growth/killing, Analog + Doxy ([2]; analog .39 + Doxy 6.25 μg/ml): +
- growth/killing, Analog + Doxy ([2]; analog .39 + Doxy 12.5 μg/ml): +
- growth/killing, Analog + Doxy ([2]; analog .78 + Doxy 1.56 μg/ml): +
- growth/killing, Analog + Doxy ([2]; analog .78 + Doxy 3.12 μg/ml): +
- growth/killing, Analog + Doxy ([2]; analog .78 + Doxy 6.23 μg/ml): +
- growth/killing, Analog + Doxy ([2]; analog .78 + Doxy 12.4 μg/ml): +
- growth/killing, Analog Control ([2]; analog alone 1.56 μg/ml): +
- growth/killing, Analog Control ([2]; analog alone 3.12 μg/ml): +
- growth/killing, Analog Control ([2]; analog alone 6.25 μg/ml): +
- growth/killing, Analog Control ([2]; analog alone 12.5 μg/ml): +
- growth/killing, Analog Control ([2]; analog alone 25.0 μg/ml): +
- growth/killing, Analog Control ([2]; analog alone .195 μg/ml): +
- growth/killing, Analog Control ([2]; analog alone .39 μg/ml): +
- growth/killing, Analog Control ([2]; analog alone .78 μg/ml): +
- MIC [3]: .8 µg/mL (≈ 1.6 µM)
- growth/killing, Analog + Doxy ([4]; analog 1.56 + Doxy 1.55 μg/ml): +
- growth/killing, Analog + Doxy ([4]; analog 1.56 + Doxy 3.1 μg/ml): +
- growth/killing, Analog + Doxy ([4]; analog 1.56 + Doxy 6.2 μg/ml): +
- growth/killing, Analog + Doxy ([4]; analog 3.12 + Doxy 1.53 μg/ml): +
- growth/killing, Analog + Doxy ([4]; analog 3.12 + Doxy 3.05 μg/ml): +
- growth/killing, Analog + Doxy ([4]; analog 3.12 + Doxy 6.1 μg/ml): +
- growth/killing, Analog + Doxy ([4]; analog .195 + Doxy 1.56 μg/ml): +
- growth/killing, Analog + Doxy ([4]; analog .195 + Doxy 3.12 μg/ml): +
- growth/killing, Analog + Doxy ([4]; analog .195 + Doxy 6.25 μg/ml): +
- growth/killing, Analog + Doxy ([4]; analog .195 + Doxy 12.5 μg/ml): +
- growth/killing, Analog + Doxy ([4]; analog .39 + Doxy 1.56 μg/ml): +
- growth/killing, Analog + Doxy ([4]; analog .39 + Doxy 3.12 μg/ml): +
- growth/killing, Analog + Doxy ([4]; analog .39 + Doxy 6.25 μg/ml): +
- growth/killing, Analog + Doxy ([4]; analog .39 + Doxy 12.5 μg/ml): +
- growth/killing, Analog + Doxy ([4]; analog .78 + Doxy 1.56 μg/ml): +
- growth/killing, Analog + Doxy ([4]; analog .78 + Doxy 3.12 μg/ml): +
- growth/killing, Analog + Doxy ([4]; analog .78 + Doxy 6.23 μg/ml): +
- growth/killing, Analog + Doxy ([4]; analog .78 + Doxy 12.4 μg/ml): +
- growth/killing, Analog Control ([4]; analog alone 1.56 μg/ml): +
- growth/killing, Analog Control ([4]; analog alone 3.12 μg/ml): +
- growth/killing, Analog Control ([4]; analog alone 6.25 μg/ml): +
- growth/killing, Analog Control ([4]; analog alone .195 μg/ml): +
- growth/killing, Analog Control ([4]; analog alone .39 μg/ml): +
- growth/killing, Analog Control ([4]; analog alone .78 μg/ml): +
- growth/killing, Analog + Doxy ([5]; analog .195 + Doxy 1.56 μg/ml): +
- growth/killing, Analog + Doxy ([5]; analog .195 + Doxy 3.12 μg/ml): +
- growth/killing, Analog + Doxy ([5]; analog .39 + Doxy 1.56 μg/ml): +
- growth/killing, Analog Control ([5]; analog alone .195 μg/ml): +
- growth/killing, Analog Control ([5]; analog alone .39 μg/ml): +
- growth/killing, Analog Control ([5]; analog alone .78 μg/ml): +
- MIC [6]: 1.3 µg/mL (≈ 2.61 µM)
- growth/killing, Analog + Doxy ([7]; analog .195 + Doxy 1.56 μg/ml): +
- growth/killing, Analog + Doxy ([7]; analog .195 + Doxy 3.12 μg/ml): +
- growth/killing, Analog + Doxy ([7]; analog .195 + Doxy 6.25 μg/ml): +
- growth/killing, Analog + Doxy ([7]; analog .39 + Doxy 1.56 μg/ml): +
- growth/killing, Analog + Doxy ([7]; analog .39 + Doxy 3.12 μg/ml): +
- growth/killing, Analog + Doxy ([7]; analog .39 + Doxy 6.25 μg/ml): +
- growth/killing, Analog + Doxy ([7]; analog .78 + Doxy 1.56 μg/ml): +
- growth/killing, Analog + Doxy ([7]; analog .78 + Doxy 3.12 μg/ml): +
- growth/killing, Analog Control ([7]; analog alone 1.56 μg/ml): +
- growth/killing, Analog Control ([7]; analog alone .195 μg/ml): +
- growth/killing, Analog Control ([7]; analog alone .39 μg/ml): +
- growth/killing, Analog Control ([7]; analog alone .78 μg/ml): +
- MIC of analog in combination ([7]; with 1.55 μg/ml doxycycline (Chart 6B)): 1.56 μg/ml
- MIC of analog in combination ([7]; with 6.23 μg/ml doxycycline (Chart 6B)): 0.78 μg/ml

Structure (SMILES): CCC(=O)OC1C2C(=C(O)C3(O)C(=O)C(C(N)=O)=C(O)C(N(C)C)C13)C(=O)c1c(O)cccc1C2CSC1CCCC1 (centres unmarked) [Cmpd 5, 13-cyclopentylthio-5-proprionate-6-deoxy tetracycline]
- MIC [1]: 20 µg/mL (≈ 33.3 µM)
- growth in MIC/MLC chart ([2]; Analog Control: analog alone 1.56 μg/ml): +
- growth in MIC/MLC chart ([2]; Analog Control: analog alone 3.12 μg/ml): +
- growth in MIC/MLC chart ([2]; Analog Control: analog alone 6.25 μg/ml): +
- growth in MIC/MLC chart ([2]; Analog Control: analog alone 12.5 μg/ml): +
- growth in MIC/MLC chart ([2]; Analog Control: analog alone 25.0 μg/ml): +
- growth in MIC/MLC chart ([2]; Analog Control: analog alone 50.00 μg/ml): +
- growth in MIC/MLC chart [2, 8]: +
- growth in MIC/MLC chart ([2]; Analog Control: analog alone .39 μg/ml): +
- growth in MIC/MLC chart ([2]; Analog Control: analog alone .78 μg/ml): +
- growth in MIC/MLC chart ([2]; analog 1.56 μg/ml + doxycycline 1.55 μg/ml): +
- growth in MIC/MLC chart ([2]; analog 1.56 μg/ml + doxycycline 3.1 μg/ml): +
- growth in MIC/MLC chart ([2]; analog 1.56 μg/ml + doxycycline 6.2 μg/ml): +
- growth in MIC/MLC chart ([2]; analog 3.12 μg/ml + doxycycline 1.53 μg/ml): +
- growth in MIC/MLC chart ([2]; analog 3.12 μg/ml + doxycycline 3.05 μg/ml): +
- growth in MIC/MLC chart ([2]; analog 3.12 μg/ml + doxycycline 6.1 μg/ml): +
- growth in MIC/MLC chart ([2]; analog 6.25 μg/ml + doxycycline 3.0 μg/ml): +
- growth in MIC/MLC chart ([2]; analog 6.25 μg/ml + doxycycline […]): +
- growth in MIC/MLC chart ([2]; analog 12.5 μg/ml + doxycycline 2.8 μg/ml): +
- growth in MIC/MLC chart ([2]; analog 12.5 μg/ml + doxycycline […]): +
- growth in MIC/MLC chart ([2]; analog 25 μg/ml + doxycycline 2.4 μg/ml): +
- growth in MIC/MLC chart ([2]; analog 25 μg/ml + doxycycline […]): +
- growth in MIC/MLC chart ([2]; analog 50 μg/ml + doxycycline 1.56 μg/ml): +
- growth in MIC/MLC chart ([2]; analog 50 μg/ml + doxycycline .78 μg/ml): +
- growth in MIC/MLC chart [2, 9]: +
- growth in MIC/MLC chart [2, 10]: +
- growth in MIC/MLC chart [2, 11]: +
- growth in MIC/MLC chart ([2]; analog .195 μg/ml + doxycycline 12.5 μg/ml): +
- growth in MIC/MLC chart ([2]; analog .195 μg/ml + doxycycline 25.0 μg/ml): +
- growth in MIC/MLC chart ([2]; analog .39 μg/ml + doxycycline 1.56 μg/ml): +
- growth in MIC/MLC chart ([2]; analog .39 μg/ml + doxycycline 3.12 μg/ml): +
- growth in MIC/MLC chart ([2]; analog .39 μg/ml + doxycycline 6.25 μg/ml): +
- growth in MIC/MLC chart ([2]; analog .39 μg/ml + doxycycline 12.5 μg/ml): +
- growth in MIC/MLC chart ([2]; analog .39 μg/ml + doxycycline 24.9 μg/ml): ↓
- growth in MIC/MLC chart ([2]; analog .78 μg/ml + doxycycline 1.56 μg/ml): +
- growth in MIC/MLC chart ([2]; analog .78 μg/ml + doxycycline 3.12 μg/ml): +
- growth in MIC/MLC chart ([2]; analog .78 μg/ml + doxycycline 6.23 μg/ml): +
- MLC of analog in combination ([2]; with 5.9 μg/ml of doxycycline (Chart 8A)): 6.25 μg/ml
- MIC [3]: .4 µg/mL (≈ 0.666 µM)
- growth in MIC/MLC chart [4, 8]: +
- growth in MIC/MLC chart [4, 9]: +
- growth in MIC/MLC chart [4, 10]: +
- growth in MIC/MLC chart [4, 11]: +
- MIC [6]: .4 µg/mL (≈ 0.666 µM)
